Data published in ChEMBL document CHEMBL1201862, “PubChem BioAssay data set” (2004).
The source made the active and inactive calls.

How the values were obtained:
[1] = molecular target: T1, RNA-binding protein pos-1 (Caenorhabditis elegans, UniProt G5EF15); experiment: inhibitors of POS-1/mex-3 RNA binding, dose response, biochemical, fluorescence polarization (AID 1964);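 also: purified POS-1 fused to maltose binding protein made in E. coli; potency of compounds blocking POS-1 binding to fluorescent RNA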
T1 sequence (G5EF15 whole entry): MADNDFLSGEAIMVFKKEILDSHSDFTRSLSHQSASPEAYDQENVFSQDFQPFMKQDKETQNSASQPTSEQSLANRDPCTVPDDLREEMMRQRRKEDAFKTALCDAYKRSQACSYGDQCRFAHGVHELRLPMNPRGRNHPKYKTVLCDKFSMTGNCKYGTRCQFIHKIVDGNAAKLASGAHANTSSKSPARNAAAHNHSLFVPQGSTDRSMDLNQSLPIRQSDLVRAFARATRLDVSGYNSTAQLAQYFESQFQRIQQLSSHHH

[2] = molecular target: T2, Zinc finger protein mex-5 (Caenorhabditis elegans, UniProt Q9XUB2); experiment: MEX-5/TCR-2 RNA interaction inhibitors, dose response, biochemical, C. elegans, fluorescence polarization (AID 1960)
T2 sequence (Q9XUB2 whole entry): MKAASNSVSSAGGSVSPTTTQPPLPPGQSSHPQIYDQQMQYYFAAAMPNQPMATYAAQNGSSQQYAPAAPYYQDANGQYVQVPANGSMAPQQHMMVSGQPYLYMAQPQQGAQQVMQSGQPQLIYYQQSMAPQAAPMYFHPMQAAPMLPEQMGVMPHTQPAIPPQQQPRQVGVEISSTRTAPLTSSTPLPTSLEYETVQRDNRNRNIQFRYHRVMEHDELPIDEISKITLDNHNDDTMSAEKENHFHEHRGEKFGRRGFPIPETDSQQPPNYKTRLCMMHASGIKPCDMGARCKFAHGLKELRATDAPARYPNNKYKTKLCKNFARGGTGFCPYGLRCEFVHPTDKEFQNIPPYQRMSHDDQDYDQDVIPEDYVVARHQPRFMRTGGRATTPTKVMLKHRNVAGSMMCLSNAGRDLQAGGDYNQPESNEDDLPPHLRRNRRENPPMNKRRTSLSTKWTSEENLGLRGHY

[3] = molecular target: T3, Sentrin-specific protease 1 (Homo sapiens, UniProt Q9P0U3); experiment: potency of human SENP1 inhibitors, dose response, biochemical, kinetic FRET (AID 651697); format: functional; conditions: read-out: IC50_Mean
T3 sequence (Q9P0U3 whole entry): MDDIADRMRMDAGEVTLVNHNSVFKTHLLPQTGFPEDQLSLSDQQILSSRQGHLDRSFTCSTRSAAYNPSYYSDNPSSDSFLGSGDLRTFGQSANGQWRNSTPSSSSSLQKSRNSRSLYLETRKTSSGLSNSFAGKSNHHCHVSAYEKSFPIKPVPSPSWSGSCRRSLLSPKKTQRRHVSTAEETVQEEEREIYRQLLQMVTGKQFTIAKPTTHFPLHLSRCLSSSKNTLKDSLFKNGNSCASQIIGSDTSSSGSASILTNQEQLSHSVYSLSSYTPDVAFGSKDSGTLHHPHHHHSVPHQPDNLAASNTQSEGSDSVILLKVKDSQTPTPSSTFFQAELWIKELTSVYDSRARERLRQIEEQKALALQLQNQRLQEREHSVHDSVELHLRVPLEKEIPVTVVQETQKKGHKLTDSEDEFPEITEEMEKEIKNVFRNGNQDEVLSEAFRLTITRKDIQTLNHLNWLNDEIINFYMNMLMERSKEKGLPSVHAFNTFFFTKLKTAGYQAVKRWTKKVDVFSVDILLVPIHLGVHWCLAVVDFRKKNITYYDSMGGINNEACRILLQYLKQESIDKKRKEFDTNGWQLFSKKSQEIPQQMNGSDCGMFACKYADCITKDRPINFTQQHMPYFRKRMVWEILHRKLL

[4] = molecular target: T3, Sentrin-specific protease 1; experiment: Dose response confirmation of small molecule inhibitors of the catalytic domain of the SUMO protease, SENP1 in a FRET assay.; format: functional; conditions: read-out: IC50_Mean
[5] = molecular target: T4, Rac GTPase-activating protein 1 (Homo sapiens, UniProt Q9H0H5); experiment: MgcRacGAP GTPase-activating activity inhibitors, confirmation, biochemical, ADP Hunter fluorescence, primary and confirmatory (AID 624330); format: functional
T4 sequence (Q9H0H5 whole entry): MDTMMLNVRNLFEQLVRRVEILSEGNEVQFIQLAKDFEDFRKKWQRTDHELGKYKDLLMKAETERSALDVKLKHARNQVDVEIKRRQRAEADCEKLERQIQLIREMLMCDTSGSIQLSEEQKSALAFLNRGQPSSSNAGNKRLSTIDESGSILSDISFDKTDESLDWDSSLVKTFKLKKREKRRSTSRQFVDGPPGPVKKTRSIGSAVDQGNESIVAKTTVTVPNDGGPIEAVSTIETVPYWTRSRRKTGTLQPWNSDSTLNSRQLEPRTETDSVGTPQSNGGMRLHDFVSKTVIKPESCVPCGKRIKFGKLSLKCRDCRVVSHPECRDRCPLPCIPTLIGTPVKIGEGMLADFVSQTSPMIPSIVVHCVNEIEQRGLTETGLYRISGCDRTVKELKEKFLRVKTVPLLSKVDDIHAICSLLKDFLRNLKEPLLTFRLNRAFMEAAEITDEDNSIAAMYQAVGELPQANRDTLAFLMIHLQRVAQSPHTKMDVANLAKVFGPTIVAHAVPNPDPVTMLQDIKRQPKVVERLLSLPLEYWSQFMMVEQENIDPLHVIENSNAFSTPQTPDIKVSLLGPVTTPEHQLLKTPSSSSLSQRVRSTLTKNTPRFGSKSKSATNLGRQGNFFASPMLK

Vero = experiment: cells; format: functional; conditions: Chlorocebus sabaeus
[6] = molecular target: Hepatocyte nuclear factor 4-alpha (Homo sapiens, UniProt P41235); format: functional, cell-based;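 also: biochemical luminescence-based dose-response counterscreen measuring inhibition of HNF4 dimerization, run alongside a screen for blockers of ABHD5–perilipin-5 interaction; split luciferase complementation of HNF4 fusion proteins in cell lysate measuring dimerization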
[7] = molecular target: T5, Heat shock factor protein 1 (Mus musculus, UniProt P38532); experiment: HSF1 potentiators in luciferase reporter cells, confirmation, cell-based, NIH3T3, luminescence, dose retest (AID 435004); format: functional;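 also: stress induced by proteasome inhibitor MG132 added 30 min after compound; luciferase reporter driven by HSF1 response element in NIH3T3 cells; actives raise luminescence as potentiators of the MG132 stress response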
T5 sequence (P38532 whole entry): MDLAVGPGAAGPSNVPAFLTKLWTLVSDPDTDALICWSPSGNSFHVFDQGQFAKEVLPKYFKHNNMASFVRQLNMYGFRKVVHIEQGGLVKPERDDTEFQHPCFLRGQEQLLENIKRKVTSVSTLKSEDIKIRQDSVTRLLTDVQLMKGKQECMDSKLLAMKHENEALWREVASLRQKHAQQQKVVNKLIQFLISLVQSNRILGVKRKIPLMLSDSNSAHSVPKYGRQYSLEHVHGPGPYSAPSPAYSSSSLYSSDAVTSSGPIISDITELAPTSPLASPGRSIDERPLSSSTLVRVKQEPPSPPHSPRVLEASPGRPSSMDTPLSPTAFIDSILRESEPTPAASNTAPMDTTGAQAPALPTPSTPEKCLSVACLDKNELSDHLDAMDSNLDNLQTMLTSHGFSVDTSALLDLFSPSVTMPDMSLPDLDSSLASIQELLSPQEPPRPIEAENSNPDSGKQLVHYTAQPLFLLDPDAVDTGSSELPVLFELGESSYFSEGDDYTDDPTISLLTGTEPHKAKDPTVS

[8] = Luminescence Cell-Based Dose Retest to Confirm Inhibitors of Cancer Stem Cells. [Related pubchem assays (depositor defined):AID2717, AID2721]; format: functional; conditions: Homo sapiens
[9] = molecular target: T6, Acyl-homoserine lactone acylase PvdQ (Pseudomonas aeruginosa (strain LESB58), UniProt Q9I194); experiment: P. aeruginosa PvdQ acylase inhibitors, dose response, biochemical, fluorescence, plate reader and imaging, cherry-picks (AID 493231)
T6 sequence (Q9I194 whole entry): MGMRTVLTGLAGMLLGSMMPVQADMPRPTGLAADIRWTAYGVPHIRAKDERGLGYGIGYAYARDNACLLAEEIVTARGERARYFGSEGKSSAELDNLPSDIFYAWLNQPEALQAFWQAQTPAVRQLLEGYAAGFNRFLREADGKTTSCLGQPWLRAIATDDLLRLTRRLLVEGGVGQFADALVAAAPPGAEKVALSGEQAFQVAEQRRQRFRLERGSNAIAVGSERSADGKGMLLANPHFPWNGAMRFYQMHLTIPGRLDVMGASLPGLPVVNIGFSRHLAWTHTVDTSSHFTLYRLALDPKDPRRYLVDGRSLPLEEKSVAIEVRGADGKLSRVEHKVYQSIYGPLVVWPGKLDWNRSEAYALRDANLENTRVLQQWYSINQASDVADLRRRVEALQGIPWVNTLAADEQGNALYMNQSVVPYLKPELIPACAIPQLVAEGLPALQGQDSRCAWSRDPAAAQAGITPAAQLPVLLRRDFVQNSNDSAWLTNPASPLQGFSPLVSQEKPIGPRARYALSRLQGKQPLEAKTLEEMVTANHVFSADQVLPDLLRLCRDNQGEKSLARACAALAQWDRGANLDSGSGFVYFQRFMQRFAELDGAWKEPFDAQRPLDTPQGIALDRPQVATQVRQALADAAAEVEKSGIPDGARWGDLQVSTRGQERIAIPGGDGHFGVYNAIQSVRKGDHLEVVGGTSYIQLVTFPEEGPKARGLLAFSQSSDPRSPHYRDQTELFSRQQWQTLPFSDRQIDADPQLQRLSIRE

[10] = molecular target: Peroxisome proliferator-activated receptor gamma/Nuclear receptor coactivator 2 (Homo sapiens, UniProt P37231); experiment: (§1) TR-FRET dose response biochemical High Throughput Screening assay for agonists of the steroid receptor coactivator 2 (SRC-2) recruitment by the peroxisome proliferator-activated receptor gamma (PPAR gamma): non-selective agonists. [Related pubchem assays: 1297, 1032 ]; format: functional
Sequence of Peroxisome proliferator-activated receptor gamma/Nuclear receptor coactivator 2 (P37231 whole entry, the tested form may be a part): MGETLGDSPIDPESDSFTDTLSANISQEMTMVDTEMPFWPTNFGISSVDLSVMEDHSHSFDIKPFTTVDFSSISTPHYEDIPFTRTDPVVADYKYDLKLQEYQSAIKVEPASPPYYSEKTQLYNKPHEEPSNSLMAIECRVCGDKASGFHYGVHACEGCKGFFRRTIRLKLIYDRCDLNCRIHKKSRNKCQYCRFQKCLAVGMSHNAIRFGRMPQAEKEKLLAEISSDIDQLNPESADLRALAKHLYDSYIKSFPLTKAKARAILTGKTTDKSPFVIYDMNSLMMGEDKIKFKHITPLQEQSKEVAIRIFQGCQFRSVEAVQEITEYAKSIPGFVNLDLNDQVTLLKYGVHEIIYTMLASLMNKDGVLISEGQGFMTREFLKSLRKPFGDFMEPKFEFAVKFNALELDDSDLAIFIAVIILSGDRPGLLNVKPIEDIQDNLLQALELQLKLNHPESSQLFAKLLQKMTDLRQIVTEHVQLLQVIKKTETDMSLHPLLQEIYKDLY
Sequence of Peroxisome proliferator-activated receptor gamma/Nuclear receptor coactivator 2 (Q15596 whole entry, further chain, the tested form may be a part): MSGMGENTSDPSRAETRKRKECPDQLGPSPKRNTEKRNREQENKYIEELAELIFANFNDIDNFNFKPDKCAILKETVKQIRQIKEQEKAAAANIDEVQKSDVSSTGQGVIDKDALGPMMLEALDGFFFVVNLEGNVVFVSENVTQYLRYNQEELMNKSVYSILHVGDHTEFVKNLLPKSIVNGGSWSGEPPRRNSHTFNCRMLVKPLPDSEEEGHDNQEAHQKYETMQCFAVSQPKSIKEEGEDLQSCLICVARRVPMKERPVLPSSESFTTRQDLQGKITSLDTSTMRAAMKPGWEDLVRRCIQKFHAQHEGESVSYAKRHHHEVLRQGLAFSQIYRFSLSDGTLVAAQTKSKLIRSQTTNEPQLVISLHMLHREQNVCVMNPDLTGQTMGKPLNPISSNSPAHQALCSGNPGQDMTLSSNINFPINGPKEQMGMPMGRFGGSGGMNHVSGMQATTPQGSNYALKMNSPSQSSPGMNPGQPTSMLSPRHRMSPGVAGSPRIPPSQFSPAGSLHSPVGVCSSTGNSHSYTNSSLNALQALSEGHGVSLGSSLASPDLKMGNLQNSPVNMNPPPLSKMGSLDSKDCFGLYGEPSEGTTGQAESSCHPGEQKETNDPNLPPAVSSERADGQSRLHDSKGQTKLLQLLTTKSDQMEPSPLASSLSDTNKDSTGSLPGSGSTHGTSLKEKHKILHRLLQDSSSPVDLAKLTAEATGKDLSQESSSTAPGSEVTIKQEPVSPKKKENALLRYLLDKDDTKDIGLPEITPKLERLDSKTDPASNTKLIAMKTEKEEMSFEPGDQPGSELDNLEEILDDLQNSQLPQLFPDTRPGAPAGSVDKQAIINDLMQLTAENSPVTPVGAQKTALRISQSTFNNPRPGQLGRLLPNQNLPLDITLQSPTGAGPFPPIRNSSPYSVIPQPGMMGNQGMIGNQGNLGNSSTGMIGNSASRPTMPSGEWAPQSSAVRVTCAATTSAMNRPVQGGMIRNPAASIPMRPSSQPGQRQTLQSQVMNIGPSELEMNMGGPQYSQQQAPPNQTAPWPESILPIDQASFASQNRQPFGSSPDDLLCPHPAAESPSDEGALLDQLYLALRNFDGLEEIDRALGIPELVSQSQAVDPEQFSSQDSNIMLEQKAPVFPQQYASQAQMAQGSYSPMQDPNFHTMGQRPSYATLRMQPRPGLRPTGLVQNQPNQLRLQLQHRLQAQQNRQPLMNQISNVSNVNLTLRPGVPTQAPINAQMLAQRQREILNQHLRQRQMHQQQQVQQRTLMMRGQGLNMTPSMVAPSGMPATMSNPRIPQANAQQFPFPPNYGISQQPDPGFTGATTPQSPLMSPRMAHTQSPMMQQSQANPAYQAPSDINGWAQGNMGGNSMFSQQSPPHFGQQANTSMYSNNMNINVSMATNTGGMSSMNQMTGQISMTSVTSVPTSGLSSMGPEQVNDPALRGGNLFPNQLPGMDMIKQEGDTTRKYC

[11] = Fluorescence-based cell-based high throughput dose response assay for inhibitors of the interaction of nucleotide-binding oligomerization domain containing 2 (NOD2) and the receptor-interacting serine-threonine kinase 2 (RIPK2).; format: functional; conditions: Homo sapiens
[12] = Luminescence Cell-Based Dose Confirmation HTS to Identify Inhibitors of Platelet Dense Granule Release. [Related pubchem assays: 1663 (Primary HTS), 1678 (Summary of Project)]; format: functional
[13] = molecular target: Luciferin 4-monooxygenase (Photinus pyralis, UniProt P08659); experiment: firefly luciferase enzyme inhibitors, dose response, biochemical, luminescence (AID 1891)
Sequence of Luciferin 4-monooxygenase (P08659 whole entry): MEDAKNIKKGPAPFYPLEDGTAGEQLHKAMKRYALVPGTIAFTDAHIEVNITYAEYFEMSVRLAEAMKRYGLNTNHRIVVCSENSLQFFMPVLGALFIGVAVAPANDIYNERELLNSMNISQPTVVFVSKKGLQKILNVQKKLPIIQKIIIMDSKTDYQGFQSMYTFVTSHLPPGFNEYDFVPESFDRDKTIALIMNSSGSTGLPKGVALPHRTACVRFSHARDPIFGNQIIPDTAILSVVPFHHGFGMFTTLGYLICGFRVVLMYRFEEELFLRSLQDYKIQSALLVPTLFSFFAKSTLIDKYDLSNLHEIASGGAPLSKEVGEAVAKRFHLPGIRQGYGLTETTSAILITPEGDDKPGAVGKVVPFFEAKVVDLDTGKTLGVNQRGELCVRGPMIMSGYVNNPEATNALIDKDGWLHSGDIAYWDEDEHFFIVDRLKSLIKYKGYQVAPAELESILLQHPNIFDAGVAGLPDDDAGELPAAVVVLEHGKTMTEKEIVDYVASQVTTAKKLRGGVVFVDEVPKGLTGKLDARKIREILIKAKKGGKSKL

Beta Lactamase = Beta Lactamase (Pseudomonas aeruginosa, UniProt Q932Y6); experiment: beta-lactamase reporter inhibitor potency, dose response, artefact control for NOD2-RIPK2 interaction inhibitor project, BLA reporter cells, FRET fluorescence (AID 651552); format: functional, cell-based
Sequence of Beta Lactamase (Q932Y6 whole entry): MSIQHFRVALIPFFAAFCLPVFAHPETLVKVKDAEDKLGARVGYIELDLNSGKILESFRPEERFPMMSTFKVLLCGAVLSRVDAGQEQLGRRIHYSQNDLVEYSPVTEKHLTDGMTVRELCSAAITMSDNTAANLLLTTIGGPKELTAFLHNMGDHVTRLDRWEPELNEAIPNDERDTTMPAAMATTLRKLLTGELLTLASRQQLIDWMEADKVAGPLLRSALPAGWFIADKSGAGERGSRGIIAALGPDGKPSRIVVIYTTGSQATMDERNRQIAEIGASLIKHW

[14] = molecular target: Peroxisome proliferator-activated receptor gamma/Nuclear receptor coactivator 3 (Homo sapiens, UniProt P37231); experiment: as §1, with “3 (SRC-3)” for “2 (SRC-2)”, “1301 (Confirmation screen.), 1048 (Primary screen.)]” for “1297, 1032 ]”; format: functional
Beta-galactosidase = Beta-galactosidase (Escherichia coli, UniProt Q8VNN2); experiment: beta-galactosidase enzyme inhibitors and activators, dose response, artefact control for CCR6 antagonist project, biochemical, E. coli enzyme, set 3 (AID 504712); format: functional
[15] = molecular target: Peroxisome proliferator-activated receptor gamma/Nuclear receptor coactivator 1 (Homo sapiens, UniProt P37231); experiment: as §1, with “1 (SRC-1)” for “2 (SRC-2)”, “assays (depositor defined):AID1300, AID1808, AID504735, AID631]” for “assays: 1297, 1032 ]”; format: protein assay
Sequence of Peroxisome proliferator-activated receptor gamma/Nuclear receptor coactivator 1 (P37231 whole entry): as the sequence (P37231 whole entry, the tested form may be a part) above
Sequence of Peroxisome proliferator-activated receptor gamma/Nuclear receptor coactivator 1 (Q15788 whole entry, further chain): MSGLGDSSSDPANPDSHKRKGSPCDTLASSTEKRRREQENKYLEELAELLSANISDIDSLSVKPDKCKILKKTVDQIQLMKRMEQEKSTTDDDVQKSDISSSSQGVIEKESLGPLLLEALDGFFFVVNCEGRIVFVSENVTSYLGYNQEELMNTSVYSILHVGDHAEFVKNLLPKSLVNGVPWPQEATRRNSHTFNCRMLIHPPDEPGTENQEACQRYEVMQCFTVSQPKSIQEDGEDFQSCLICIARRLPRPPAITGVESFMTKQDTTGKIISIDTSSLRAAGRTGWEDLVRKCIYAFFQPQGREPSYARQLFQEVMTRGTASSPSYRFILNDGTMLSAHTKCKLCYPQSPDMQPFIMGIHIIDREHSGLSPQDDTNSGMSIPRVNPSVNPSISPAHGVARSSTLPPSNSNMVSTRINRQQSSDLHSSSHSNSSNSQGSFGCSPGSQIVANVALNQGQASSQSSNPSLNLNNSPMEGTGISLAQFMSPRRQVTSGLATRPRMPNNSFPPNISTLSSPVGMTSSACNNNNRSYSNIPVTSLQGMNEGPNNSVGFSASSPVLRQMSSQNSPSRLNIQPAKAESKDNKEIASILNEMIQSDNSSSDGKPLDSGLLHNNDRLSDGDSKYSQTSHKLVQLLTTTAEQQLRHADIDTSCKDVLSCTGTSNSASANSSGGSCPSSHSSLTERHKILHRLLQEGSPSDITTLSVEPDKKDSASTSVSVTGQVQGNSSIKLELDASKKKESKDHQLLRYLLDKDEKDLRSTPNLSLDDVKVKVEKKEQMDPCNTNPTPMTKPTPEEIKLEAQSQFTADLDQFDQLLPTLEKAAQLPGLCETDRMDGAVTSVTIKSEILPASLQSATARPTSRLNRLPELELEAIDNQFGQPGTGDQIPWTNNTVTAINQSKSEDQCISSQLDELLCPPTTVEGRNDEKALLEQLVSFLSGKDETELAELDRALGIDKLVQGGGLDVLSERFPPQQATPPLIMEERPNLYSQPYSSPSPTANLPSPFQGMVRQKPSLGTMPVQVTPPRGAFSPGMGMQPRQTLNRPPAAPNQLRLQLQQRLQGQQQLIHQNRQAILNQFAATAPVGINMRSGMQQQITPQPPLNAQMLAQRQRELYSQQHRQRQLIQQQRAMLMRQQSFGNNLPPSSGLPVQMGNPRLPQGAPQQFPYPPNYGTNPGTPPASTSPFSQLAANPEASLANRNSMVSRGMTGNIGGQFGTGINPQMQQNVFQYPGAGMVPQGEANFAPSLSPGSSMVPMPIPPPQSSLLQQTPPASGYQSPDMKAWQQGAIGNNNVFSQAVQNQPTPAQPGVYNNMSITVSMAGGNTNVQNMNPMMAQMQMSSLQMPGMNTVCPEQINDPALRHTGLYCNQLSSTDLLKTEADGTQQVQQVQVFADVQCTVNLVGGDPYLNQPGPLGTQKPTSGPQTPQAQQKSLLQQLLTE

[16] = molecular target: T7, Sentrin-specific protease 8 (Homo sapiens, UniProt Q96LD8); format: functional
T7 sequence (Q96LD8 whole entry): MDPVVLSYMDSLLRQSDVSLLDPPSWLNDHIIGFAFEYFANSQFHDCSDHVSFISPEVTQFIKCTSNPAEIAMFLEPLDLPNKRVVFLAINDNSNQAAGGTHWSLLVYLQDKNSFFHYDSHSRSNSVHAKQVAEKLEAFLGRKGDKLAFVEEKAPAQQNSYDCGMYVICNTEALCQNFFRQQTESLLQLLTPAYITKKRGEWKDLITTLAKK

[17] = molecular target: T7, Sentrin-specific protease 8; format: functional; remark: listed apart in the source

SMILES: OC1=C2Sc3ccc(Cl)cc3N=C2CCC1
- EC50 [1]: 18.4 µM (active)
- EC50 [2]: 8.9 µM (inconclusive)
- IC50 [3]: 13.7 µM (active)
- IC50 [4]: 17.1 µM (active)
- IC50 [5]: 42 µM (active)

SMILES: CCOC(=O)/C(=C\c1ccc(Cl)cc1)c1nc(O)c2c(C)c(C)sc2n1
- CC50 (Vero): 16.5 µM (active)
- IC50 [6]: 1.56 µM (active)
- EC50 [7]: > 260 µM (inconclusive)
- AC50 [8]: 0.981 µM (active)

SMILES: O=C1/C(=C/c2ccc([N+](=O)[O-])cc2)Oc2cc(O)ccc21
- IC50 [3]: 38.4 µM (inactive)
- IC50 [4]: 10.1 µM (active)
- AC50 [9]: 53.7 µM (active)
- EC50 [7]: 175 µM (active)

SMILES: Cc1ccccc1N1C(=O)CC(Sc2nnc(-c3ccccc3)o2)C1=O (centres undefined)
- EC50 [10]: 26.2 µM (not active)
- IC50 [11]: 4.12 µM (active)
- EC50 [12]: > 112 µM (not active)
- EC50 [13]: > 112 µM (not active)
- IC50 (Beta Lactamase): 12.7 µM (inactive)
- EC50 [14]: > 79.4 µM (not active)
- IC50 (Beta-galactosidase): > 66.6 µM (inactive)
- EC50 [15]: > 26.5 µM (inactive)
- EC50 [7]: 57.4 µM (active)

SMILES: C[C@@H](OC(=O)c1nc[nH]c1C(=O)N1CCc2ccccc2C1)c1ccccc1
- IC50 [16]: 80.9 µM (inactive)
- IC50 [17]: 6.73 µM (active)
